Values of other authors, collected in patent US20240148758A1, “CONTROLLED RELEASE FORMULATIONS OF HIGHLY LIPOPHILIC PHYSIOLOGICALLY ACTIVE SUBSTANCES” (ADD Advanced Drug Delivery Technologies Ltd., priority 2019, published 2024).

Details: decimal logarithm of the n-octanol/water partition coefficient

## C=C(C)[C@@H]1CCC(C)=C[C@H]1c1c(O)cc(CCCCC)cc1O [Canapure PH, 2-[1R-3-methyl-6R-(1-methylethenyl)-2-cyclohexen-1-yl]-5-pentyl-1,3-benzenediol]
  log P: about 6.1
